Results published in ChEMBL document CHEMBL5465560, “Selectivity Literature for EUbOPEN Chemogenomic Library” (2024).
Values belong to the molecule of their own block, whether it stands above or below them.

Legend:
[1] = target: Ribosomal protein S6 kinase alpha-1 (Homo sapiens, UniProt Q15418); experiment: Selectivity interaction (KinomeScan (DiscoverX)) EUB0000607a RPS6KA1; conditions: at 10 µM
[2] = target: T1, Phosphatidylinositol 5-phosphate 4-kinase type-2 beta (Homo sapiens) (UniProt P78356); experiment: Selectivity interaction (ActivX KiNativ screen (ex vivo kinase selectivity in human PBMCs)) EUB0001619a PIP4K2B; format: cell-based; conditions: PBMC, at 1 µM
T1 sequence (whole entry): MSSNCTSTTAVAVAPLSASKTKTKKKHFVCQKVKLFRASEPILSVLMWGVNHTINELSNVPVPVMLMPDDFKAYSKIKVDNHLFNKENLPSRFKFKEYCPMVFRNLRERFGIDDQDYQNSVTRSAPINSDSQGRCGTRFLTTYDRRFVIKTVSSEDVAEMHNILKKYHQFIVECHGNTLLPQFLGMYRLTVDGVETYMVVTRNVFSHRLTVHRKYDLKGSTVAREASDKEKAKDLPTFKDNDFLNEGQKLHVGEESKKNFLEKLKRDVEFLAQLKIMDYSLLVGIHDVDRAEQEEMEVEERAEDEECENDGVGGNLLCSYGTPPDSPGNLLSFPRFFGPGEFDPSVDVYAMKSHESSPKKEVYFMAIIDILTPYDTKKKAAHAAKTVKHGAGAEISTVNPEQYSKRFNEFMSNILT

[3] = target: T2, Muscle, skeletal receptor tyrosine-protein kinase (Homo sapiens) (UniProt O15146); experiment: Selectivity interaction (Upstate Kinase Profiler service (Millipore)) EUB0000056c MUSK; conditions: at 1 µM
T2 sequence (whole entry): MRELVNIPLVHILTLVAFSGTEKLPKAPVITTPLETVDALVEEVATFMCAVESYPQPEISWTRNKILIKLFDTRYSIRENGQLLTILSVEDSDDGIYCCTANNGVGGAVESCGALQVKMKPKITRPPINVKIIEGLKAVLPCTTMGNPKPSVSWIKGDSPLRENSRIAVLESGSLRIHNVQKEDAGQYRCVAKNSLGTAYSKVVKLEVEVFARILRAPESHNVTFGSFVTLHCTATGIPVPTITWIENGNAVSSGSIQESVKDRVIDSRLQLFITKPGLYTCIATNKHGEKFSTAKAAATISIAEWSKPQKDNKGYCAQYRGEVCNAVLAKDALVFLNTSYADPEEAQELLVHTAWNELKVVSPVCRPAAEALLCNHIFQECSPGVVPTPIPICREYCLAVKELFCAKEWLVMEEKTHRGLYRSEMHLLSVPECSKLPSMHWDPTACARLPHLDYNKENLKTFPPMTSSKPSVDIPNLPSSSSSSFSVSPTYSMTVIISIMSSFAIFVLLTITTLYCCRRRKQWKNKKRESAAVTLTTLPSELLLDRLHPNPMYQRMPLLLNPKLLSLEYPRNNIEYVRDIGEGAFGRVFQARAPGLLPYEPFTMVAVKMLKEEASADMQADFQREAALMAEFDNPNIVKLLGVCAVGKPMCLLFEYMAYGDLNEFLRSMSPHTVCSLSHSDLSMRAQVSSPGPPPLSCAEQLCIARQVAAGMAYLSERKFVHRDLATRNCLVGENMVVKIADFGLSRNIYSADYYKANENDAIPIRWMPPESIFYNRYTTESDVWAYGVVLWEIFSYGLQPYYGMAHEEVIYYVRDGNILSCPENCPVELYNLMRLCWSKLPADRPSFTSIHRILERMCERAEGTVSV

[4] = target: T3, Serine/threonine-protein kinase Nek11 (Homo sapiens) (UniProt Q8NG66); experiment: Selectivity interaction (ProQinase) EUB0000171b NEK11
T3 sequence (whole entry): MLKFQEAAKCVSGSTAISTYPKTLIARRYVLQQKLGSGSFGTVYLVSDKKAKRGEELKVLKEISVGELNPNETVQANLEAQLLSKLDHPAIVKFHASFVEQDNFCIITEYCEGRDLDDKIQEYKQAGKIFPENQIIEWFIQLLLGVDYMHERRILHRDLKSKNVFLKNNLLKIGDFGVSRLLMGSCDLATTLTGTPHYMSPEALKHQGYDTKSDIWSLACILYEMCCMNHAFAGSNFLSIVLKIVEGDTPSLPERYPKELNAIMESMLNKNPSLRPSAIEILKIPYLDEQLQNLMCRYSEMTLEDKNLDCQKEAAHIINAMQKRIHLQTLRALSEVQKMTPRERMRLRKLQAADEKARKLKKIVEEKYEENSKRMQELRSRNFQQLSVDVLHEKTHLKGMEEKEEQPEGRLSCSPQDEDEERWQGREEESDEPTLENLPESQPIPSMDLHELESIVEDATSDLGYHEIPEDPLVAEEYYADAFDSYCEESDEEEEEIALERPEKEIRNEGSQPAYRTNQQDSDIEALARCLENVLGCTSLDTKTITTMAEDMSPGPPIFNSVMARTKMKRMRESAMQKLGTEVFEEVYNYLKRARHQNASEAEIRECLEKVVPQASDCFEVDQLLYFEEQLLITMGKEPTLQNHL

[5] = target: Proto-oncogene tyrosine-protein kinase ROS (Homo sapiens) (UniProt P08922); experiment: Selectivity interaction (KinomeScan (DiscoverX)) EUB0001049a ROS1; conditions: at 1 µM
[6] = target: Tyrosine-protein kinase receptor UFO (Homo sapiens, UniProt P30530); experiment: Selectivity interaction (Kinase panel (33PanQinase(R) Activity Assay)) EUB0000877a AXL
Chain of Tyrosine-protein kinase receptor UFO (P30530 whole entry): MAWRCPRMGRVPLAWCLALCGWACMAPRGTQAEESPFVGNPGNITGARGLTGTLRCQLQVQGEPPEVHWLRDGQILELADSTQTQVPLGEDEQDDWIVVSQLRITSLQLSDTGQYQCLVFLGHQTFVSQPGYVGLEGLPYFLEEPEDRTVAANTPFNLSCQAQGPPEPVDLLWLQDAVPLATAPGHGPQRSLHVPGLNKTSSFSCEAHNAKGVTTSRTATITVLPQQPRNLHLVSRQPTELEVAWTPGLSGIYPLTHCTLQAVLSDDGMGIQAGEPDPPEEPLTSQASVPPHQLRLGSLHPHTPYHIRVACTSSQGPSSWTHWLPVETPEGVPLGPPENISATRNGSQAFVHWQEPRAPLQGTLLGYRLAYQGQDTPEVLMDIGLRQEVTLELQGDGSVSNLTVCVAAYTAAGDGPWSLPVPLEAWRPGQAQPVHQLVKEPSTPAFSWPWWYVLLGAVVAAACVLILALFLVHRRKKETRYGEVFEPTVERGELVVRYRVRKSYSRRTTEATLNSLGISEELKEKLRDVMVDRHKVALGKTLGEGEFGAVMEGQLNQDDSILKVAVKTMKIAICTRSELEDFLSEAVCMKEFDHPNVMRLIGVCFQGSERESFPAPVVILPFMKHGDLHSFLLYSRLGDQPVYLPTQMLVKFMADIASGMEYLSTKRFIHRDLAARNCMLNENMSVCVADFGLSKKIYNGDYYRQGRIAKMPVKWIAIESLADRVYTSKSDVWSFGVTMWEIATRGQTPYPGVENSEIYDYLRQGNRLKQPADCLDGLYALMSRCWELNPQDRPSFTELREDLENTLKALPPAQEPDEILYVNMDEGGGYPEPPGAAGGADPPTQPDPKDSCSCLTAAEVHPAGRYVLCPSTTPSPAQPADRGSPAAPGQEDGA

Chain of Ribosomal protein S6 kinase alpha-1 (Q15418 whole entry): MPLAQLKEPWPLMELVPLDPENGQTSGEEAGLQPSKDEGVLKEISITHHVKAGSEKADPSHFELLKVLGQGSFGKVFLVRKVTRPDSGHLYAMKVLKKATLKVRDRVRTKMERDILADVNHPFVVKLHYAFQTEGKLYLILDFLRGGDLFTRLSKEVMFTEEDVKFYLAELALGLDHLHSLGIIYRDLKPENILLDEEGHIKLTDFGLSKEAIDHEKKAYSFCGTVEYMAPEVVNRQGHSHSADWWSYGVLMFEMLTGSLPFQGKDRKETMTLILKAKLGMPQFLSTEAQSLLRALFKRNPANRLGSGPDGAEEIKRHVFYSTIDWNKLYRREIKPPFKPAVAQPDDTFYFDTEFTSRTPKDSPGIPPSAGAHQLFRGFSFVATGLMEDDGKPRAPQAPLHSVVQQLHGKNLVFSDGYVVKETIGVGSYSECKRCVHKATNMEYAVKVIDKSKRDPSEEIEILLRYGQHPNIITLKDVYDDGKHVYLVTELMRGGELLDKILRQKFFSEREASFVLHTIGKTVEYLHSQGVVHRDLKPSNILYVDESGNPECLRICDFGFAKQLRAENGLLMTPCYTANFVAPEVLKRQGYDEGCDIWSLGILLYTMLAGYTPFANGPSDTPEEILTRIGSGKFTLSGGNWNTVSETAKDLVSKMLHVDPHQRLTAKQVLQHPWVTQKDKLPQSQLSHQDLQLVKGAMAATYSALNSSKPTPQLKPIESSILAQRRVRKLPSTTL
Chain of Proto-oncogene tyrosine-protein kinase ROS (Homo sapiens) (P08922 whole entry): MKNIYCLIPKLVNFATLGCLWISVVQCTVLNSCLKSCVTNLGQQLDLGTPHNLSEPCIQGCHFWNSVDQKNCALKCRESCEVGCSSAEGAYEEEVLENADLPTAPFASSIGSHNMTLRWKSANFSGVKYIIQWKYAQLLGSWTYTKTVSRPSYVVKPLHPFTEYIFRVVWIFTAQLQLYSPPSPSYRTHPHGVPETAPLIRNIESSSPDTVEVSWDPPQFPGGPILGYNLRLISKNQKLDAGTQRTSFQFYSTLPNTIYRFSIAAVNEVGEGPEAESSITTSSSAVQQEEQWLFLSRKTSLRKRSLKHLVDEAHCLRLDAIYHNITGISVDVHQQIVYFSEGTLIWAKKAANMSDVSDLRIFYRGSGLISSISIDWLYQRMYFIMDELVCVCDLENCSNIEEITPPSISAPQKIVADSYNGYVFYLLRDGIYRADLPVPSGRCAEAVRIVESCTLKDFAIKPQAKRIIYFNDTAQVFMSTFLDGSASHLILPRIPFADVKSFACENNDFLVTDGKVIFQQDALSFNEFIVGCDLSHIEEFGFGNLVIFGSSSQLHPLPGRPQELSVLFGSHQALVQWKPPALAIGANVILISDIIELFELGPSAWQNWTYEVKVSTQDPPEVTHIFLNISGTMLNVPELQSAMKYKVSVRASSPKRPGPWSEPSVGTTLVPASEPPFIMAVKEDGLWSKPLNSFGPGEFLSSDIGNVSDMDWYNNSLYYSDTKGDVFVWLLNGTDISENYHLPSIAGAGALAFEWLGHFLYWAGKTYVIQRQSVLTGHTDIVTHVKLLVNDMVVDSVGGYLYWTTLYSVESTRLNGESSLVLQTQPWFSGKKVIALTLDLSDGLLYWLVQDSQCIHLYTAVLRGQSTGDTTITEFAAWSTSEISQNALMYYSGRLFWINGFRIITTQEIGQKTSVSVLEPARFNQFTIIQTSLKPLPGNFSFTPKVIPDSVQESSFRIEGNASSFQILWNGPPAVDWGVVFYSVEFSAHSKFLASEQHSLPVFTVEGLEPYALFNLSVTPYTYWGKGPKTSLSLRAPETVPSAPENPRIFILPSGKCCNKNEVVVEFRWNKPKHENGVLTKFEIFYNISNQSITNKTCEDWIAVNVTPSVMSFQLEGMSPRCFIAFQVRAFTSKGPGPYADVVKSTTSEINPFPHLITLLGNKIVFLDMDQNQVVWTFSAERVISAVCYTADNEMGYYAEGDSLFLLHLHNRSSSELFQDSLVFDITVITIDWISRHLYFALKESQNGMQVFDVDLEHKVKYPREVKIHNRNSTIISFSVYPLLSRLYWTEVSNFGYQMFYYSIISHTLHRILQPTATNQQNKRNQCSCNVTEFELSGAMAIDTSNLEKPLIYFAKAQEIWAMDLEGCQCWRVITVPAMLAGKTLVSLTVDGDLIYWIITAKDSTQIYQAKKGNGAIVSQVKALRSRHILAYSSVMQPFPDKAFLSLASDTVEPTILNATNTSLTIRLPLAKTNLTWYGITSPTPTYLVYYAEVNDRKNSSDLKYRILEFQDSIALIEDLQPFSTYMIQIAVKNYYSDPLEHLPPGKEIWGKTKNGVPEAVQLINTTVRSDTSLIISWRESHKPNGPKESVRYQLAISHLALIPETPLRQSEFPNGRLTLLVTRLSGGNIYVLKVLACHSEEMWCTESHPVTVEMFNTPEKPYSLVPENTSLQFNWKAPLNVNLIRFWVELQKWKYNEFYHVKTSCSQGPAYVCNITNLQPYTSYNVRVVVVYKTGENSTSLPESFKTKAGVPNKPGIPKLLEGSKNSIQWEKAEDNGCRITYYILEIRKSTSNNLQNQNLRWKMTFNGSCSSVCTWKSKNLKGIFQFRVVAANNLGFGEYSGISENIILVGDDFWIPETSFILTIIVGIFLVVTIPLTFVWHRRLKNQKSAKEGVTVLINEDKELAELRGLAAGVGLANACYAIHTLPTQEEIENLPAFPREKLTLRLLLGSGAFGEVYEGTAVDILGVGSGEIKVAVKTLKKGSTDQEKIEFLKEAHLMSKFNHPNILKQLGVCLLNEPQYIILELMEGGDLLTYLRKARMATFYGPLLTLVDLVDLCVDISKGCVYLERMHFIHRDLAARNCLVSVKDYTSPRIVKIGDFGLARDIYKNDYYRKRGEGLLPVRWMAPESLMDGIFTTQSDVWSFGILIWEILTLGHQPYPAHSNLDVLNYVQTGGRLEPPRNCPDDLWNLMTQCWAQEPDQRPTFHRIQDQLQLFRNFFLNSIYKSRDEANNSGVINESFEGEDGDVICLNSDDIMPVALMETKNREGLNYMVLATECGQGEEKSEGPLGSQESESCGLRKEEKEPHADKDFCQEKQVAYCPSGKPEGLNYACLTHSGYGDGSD

% of inhibition [3]: -7%
Structure (SMILES): Cc1ccc(-c2ccc3c(ccc4sc5c(c43)NC[C@@H](C)NC5=O)n2)cn1

% of control ([4]; at 1 µM): 103%
% of control ([4]; at 5 µM): 87%
Structure (SMILES): C=CC(=O)Nc1cccc(C(=O)Nc2ccc(Nc3cc(-c4[nH]c(SC)nc4C)ccn3)cc2)c1

IC50 [6]: > 10 µM
Structure (SMILES): CCC(=O)N1CC[C@H](Nc2ncnc3c2CN(c2cnc(OC)c(C(F)(F)F)c2)CC3)C1 [LENIOLISIB]

Second part, the molecule before the results:

Structure (SMILES): CNC(=O)Nc1ccc(-c2nc(N3CC4CCC(C3)O4)c3cnn(C4CCC5(CC4)OCCO5)c3n2)cc1
% of control [1]: 100%

Structure (SMILES): N#Cc1cccc(-c2c[nH]c3ncnc(N4CCOCC4)c23)c1
% of inhibition [2]: 16%

Structure (SMILES): COc1cc(Nc2nc(C)cc(-c3cnn4nc(OC)ccc34)n2)cc(C(F)(F)F)c1
% of control [5]: 91%
